From patent publication US20060270841A1, “Assays to monitor amyloid precursor protein processing” (priority 2002, published 2006)

Experiments:
Format in all cases: cell-based
[1] = tested on: APP processing; assay: APP-TAT-APPct32 fusion protein with LTR β-galactosidase reporter in P4-R5 HeLa cells (Example 8); details: 10 μM inhibitor
Method: P4-R5 cells are HeLa cells that contain a stably integrated β-galactosidase reporter gene under the control of the HIV1 LTR.
1.) Cell count on P4-R5 cells=7.6×10^5 cells per ml in cDMEM (−)PR. Seeded sterile white luminometer TC plates with the following cell numbers:
• 5×10^3/well=0.75 ml in 9.25 ml media • 1.0×10^4/well=1.5 ml in 8.5 ml media • Seeded 100 μL cells per well. • Incubate overnight at 37° C., 5% CO2. Day 2
2.) Made up media with appropriate dilutions of inhibitors. • On no-inhibitor controls, added 100 μL of cDMEM with 1% DMSO • On wells with Compound X, added 10 μM inhibitor in cDMEM • On wells with L-875,532, added 10 μM inhibitor in cDMEM
3.) Prior to transfection, pulled off media on P4-R5 cells and replaced with media −/+inhibitor. • FUGENE® transfection: • For FUGENE® transfection:
4.) Added 600 μL of OPTIMEM® to sterile EPPENDORF® tube and carefully added 30 μL FUGENE® to media, without touching walls of tube. Incubated at room temperature for 5 minutes. • In separate EPPENDORF® tubes, added each DNA. • Added FUGENE®/OPTIMEM® dropwise to DNA; incubated at room temperature for 15 minutes.
Added 15 μL/well of DNA/FUGENE®/OPTIMEM® dropwise to media in appropriate wells on P4-R5 cells, swirling to mix. […]
6. Read immediately in luminometer using standard file. Filled in required fields, read plate.

[2] = tested on: APP processing; assay: APP/TAT fusion protein with LTR-GFP reporter in H4 cells, FLUOstar reading (Example 3); details: for Fluor Units: approximately 48 hours, 485 excitation/538 emission
Method: 1. H4 cells (ATCC HTB-148) were transfected with the various constructs listed below using 6 μL Fugene per 100 μL Optimem and 100 μL Optimem per well (6-well dishes). Transfection reactions were incubated for 30 minutes prior to adding 100 μL dropwise onto wells.
Transfections were done as follows:
1. 1 μg pMM321 (FIG. 25A-D) and 1 μg pcDNA3.1 backbone
1a. 1 μg pMM321 and 1 μg pcDNA3.1 (Invitrogen, San Diego, Calif.) backbone. Prior to transfection, 10 μM L-875,532 (γ-secretase inhibitor) was added to the well.
2. 1 μg pMM321 and 1 μg pRBR186 (FIG. 22A; APP expression vector; processing and inhibition of processing control)
2a. 1 μg pMM321 and 1 μg pRBR186. Prior to transfection, 10 μM L-875,532 was added to cells (transfection solution for 3-5 were prepared in bulk)
4. and 4a. 1 μg pMM321 and 1 μg pcDNA3.1 zeo (+) APP(1-651)SW, K612V-(M1L)TATexonI. Prior to transfection, 10 μM L-875,532 was added to the two wells.
5. and 5a. 1 μg pMM321 and 1 μg pcDNA3.1 zeo (+) APP(1-651)SW, K612V-(M1L)TATexonI. Prior to transfection, 10 μM Compound X was added to the two wells
7. 1 μg pMM321 and 1 μg pUCd5 TAT. Prior to transfection, 10 μM L-875,532 was added to the cells.
Cells were assessed by eye under a fluorescence microscope the morning following transfection (˜20 hrs).
At approximately 48 hours, cells were trypsinized, spun down, and resuspended in 100 μL PBS. The cellular contents of each well of the transfection plates were placed into one well of a 96-well fluorescence plate. Fluorescence was analyzed using the FLUOstar (485 excitation/538 emission).

[3] = tested on: APP processing; assay: APP/TAT fusion protein with LTR-EGFP reporter (pMM321), transient transfection in H4 cells (Example 2); details: for fluorometer reading: 10 uM 458, 100,000 cells
Method: (§1) “pcDNA3.1 zeo (+) APP(1-651)SW, K612V-(M1L)TATexonI,” “pMM321,” and “pUCd5TAT” are the same as in Example 1. H4 cells (ATCC HTB-148) are a neuronal cell line.
(§2) • Day 1: Plated out 2×6 well plates of HEK293T cells and 2×6 well plates of H4 cells at 1×10^5 cells/well. • Day 2: Transfected cells with 2 μg total DNA—pcDNA3.1 zeo (+) APP(1-651)SW, K612V-(M1L)TATexonI and carrier (a pET-IN plasmid). Plate 1:
(§3) 3,4: 0.1 μg pMM321+0.1 μg pcDNA3.1 zeo (+) APP(1-651)SW, K612V-(M1L)TATexonI+1.8 μg carrier (added too 0.5×carrier to this mix in 293T cells)
Transfections for H4 cells: 6 μL Fugene/well. Combined with DNA in Optimem and incubated and added to cells according to manufacturer's instructions.
(§4) Added 10 μM L-685,458 to Plates 1 and 2, wells 2 and 4 for both cell types within 1 hour of transfection. Observed cells periodically.
(§5) Took pictures at 24, 46 hours after transfection, using AE lock to keep exposures constant between wells.
(§6) Changed media on cells at 24 hours past transfection. Kept 10 μM L-685,458 on cells in wells 2 and 4.
(§7) 100,000 cells from each well were trypsinized and placed in 0.1 mL phenol red-free media in a Costar 96-well dish and read using the fluorometer.

[4] = tested on: Aβ; assay: Production of Aβ in conditioned media of transfected 293T and H4 cells; details: 10 μM L-685,458, 1 mL conditioned media
Method: 1 mL of conditioned media from each well was analyzed for production of Aβ.

[5] = tested on: APP processing; assay: APP/TAT fusion protein with LTR-EGFP reporter (pMM321), transient transfection in HEK293T cells (Example 2); details: for # Bright / # Med / # Non / # Strong: count from photographs; for fluorometer reading: 293T, 10 uM 458, 100,000 cells
Method: as §1, §2, §3
Transfections for HEK293T cells: 9 μL Fugene/well. Combined with DNA in Optimem and incubated and added to cells according to manufacturer's instructions.
as §4, §5, §6
Took some photographs under fluorescent and white light (white light at low intensity) to reveal fluorescent and non-fluorescent cells. Conducted a subjective analysis of the photographs to see if the amount of inhibition by 10 μL-685,458 was in any way quantifiable. Counted bright (white in the middle), strong (blue middle), medium (green) and dim/non-fluorescent cells and determined the approximate fraction of each level of expression. Results follow:
as §7

[6] = 293T cells, 46 hours, 1 μg pMM321 + 0.1 μg APP/TAT vector + cmpd (10 μM)
[7] = 293T cells, 46 hours, 1 μg pMM321 + 1 μg APP/TAT vector + cmpd (10 μM), approximate fraction of cells
[8] = 293T cells, 46 hours, 1 μg pMM321 + 1 μg APP/TAT vector + cmpd (10 μM)

C[C@H](NC(=O)Cc1cc(F)cc(F)c1)C(=O)N[C@H]1N=C(c2ccccc2)c2ccccc2N(C)C1=O [L-875,532]
transactivation of the LTR by pUCd5TAT (control) [1]: not affected by either inhibitor
Fluor Units ([2]; pMM321 + APP-TAT-ct32, 10 μM inhibitor): 8283 Fluor Units
decrease of fluorescence (fold) ([2]; pMM321 + APP/TAT vector, 10 μM inhibitor vs no inhibitor): 2.5 ×
Fluor Units ([2]; pMM321 + pRBR186 (control), 10 μM inhibitor): 2161 Fluor Units
Fluor Units ([2]; pMM321 alone (control), 10 μM inhibitor): 3443 Fluor Units
fluorescence assessed by eye under a fluorescence microscope ([2]; ~20 hrs, 1 μg pMM321 + 1 μg APP/TAT vector, 10 μM inhibitor): Clear inhibition of fluorescence

CC(C)C[C@H](NC(=O)[C@H](Cc1ccccc1)C[C@@H](O)[C@H](Cc1ccccc1)NC(=O)OC(C)(C)C)C(=O)N[C@@H](Cc1ccccc1)C(N)=O [L-685,458, {1S-Benzyl-4R-[1-(1S-carbamoyl-2-phenylethylcarbamoyl)-1S-3-methylbutylcarbamoyl]-2R-hydroxy-5-phenylpentyl}carbamic acid tert-butyl ester]
fluorometer reading ([3]; H4, 0.1 ug LTRGFP, 0.1 ug APPtat): 6957
fluorometer reading ([3]; H4, 0.1 ug LTRGFP, 1 ug APPTAT): 10031
fluorometer reading ([3]; H4, 1 ug LTRGFP, 0.1 ug APPtat): 7136
fluorometer reading ([3]; H4, 1 ug LTRGFP, 1 ug APPTAT): 25307
bright green cells/field ([3]; H4 cells, 24 hours, 0.1 μg pMM321 + 1 μg APP/TAT vector, 10 μM L-685,458): 3-5 cells/field
green (GFP) cells observed under the microscope ([3]; H4 cells, 24 hours, 1 ug pMM321 + 1 ug APP/TAT vector, 10 μM L-685,458): reduced compared with well #1
inhibition of fluorescence (fluorometer) ([3]; H4 cells, any transfection conditions, 10 μM L-685,458): No inhibition of fluorescence was observed
Aβ in conditioned media [4]: completely inhibited to background levels
inhibition of GFP ([5]; 10 μM L-685,458, same wells as the Aβ analysis (293T and H4 cells)): substantial inhibition of GFP was not observed
inhibition of fluorescence (fluorometer) ([5]; 293T cells, 0.1 μg APP/TAT vector + 0.1 μg pMM321, 10 μM L-685,458): Inhibition of fluorescence was also observed
inhibition of fluorescence (fluorometer) ([5]; 293T cells, 1 μg APP/TAT vector + 1 μg pMM321, 10 μM L-685,458): reduced to background levels
effect on numbers of fluorescing cells (Table 1, second run) ([5]; 293T cells, 1 μg pMM321 + 0.1 μg APP/TAT vector, with vs without cmpd): fewer bright and strong fluorescing cells as well as more non-fluorescent cells
effect on numbers of fluorescing cells (Table 1, first run) ([5]; 293T cells, 1 μg pMM321 + 1 μg APP/TAT vector, with vs without cmpd): fewer strong and medium fluorescing cells as well as more non-fluorescent cells
# Bright [5, 6]: 23
# Med [5, 6]: 149
# Non [5, 6]: 194
# Strong [5, 6]: 32
% Med [5, 7]: 11%
% Non [5, 7]: 88%
% Strong [5, 7]: 0.8%
# Bright [5, 8]: none
# Med [5, 8]: 66
# Non [5, 8]: 521
# Strong [5, 8]: 5
fluorometer reading ([5]; 0.1 ug LTRGFP, 0.1 ug APPtat): 14790
fluorometer reading ([5]; 0.1 ug LTRGFP, 1 ug APPTAT): 10491
fluorometer reading ([5]; 1 ug LTRGFP, 0.1 ug APPtat): 65535
fluorometer reading ([5]; 1 ug LTRGFP, 1 ug APPTAT): 14321
green (GFP) cells observed ([5]; HEK293T cells, 24 hours, 0.1 μg pMM321 + 0.1 μg APP/TAT vector, 10 μM L-685,458): Bright, medium, and dim green cells
green (GFP) cells observed ([5]; HEK293T cells, 24 hours, 0.1 μg pMM321 + 1 μg APP/TAT vector, 10 μM L-685,458): Bright, medium, and dim green cells
green (GFP) cells observed ([5]; HEK293T cells, 24 hours, 1 μg pMM321 + 0.1 μg APP/TAT vector, 10 μM L-685,458): Fewer bright green cells/field but intensity does not appear strongly diminished
green (GFP) cells observed, of 15 cells ([5]; HEK293T cells, 24 hours, 1 μg pMM321 + 1 μg APP/TAT vector, 10 μM L-685,458): 6 very dim, 5 dim, 1 medium, 3 bright
